Test results reported in patent US20190076510A1, “PROTEIN KINASE C INHIBITION TO EXTEND TISSUE PLASMINOGEN ACTIVATOR TREATMENT FOR ISCHEMIC DISEASE” (THE REGENTS OF THE UNIVERSITY OF MICHIGAN, priority 2017, published 2019).

How the values were obtained:
[1] = test system: photothrombotic MCAO mice; test: MCAO-induced cerebral vascular permeability to fluorescent-labeled 70 kDa dextran; format: in vivo, mouse; settings: separate experiments
[2] = test system: vascular permeability in the eye; settings: in vivo; cited from earlier work
acute ischemic stroke = settings: intravenous rtPA within 3-4.5 hours; cited from earlier work
[3] = test system: photothrombotic MCAO mice; test: Hemorrhagic transformation (ICH) after MCAO with late rtPA thrombolysis; format: in vivo, mouse; settings: rtPA given 5 hours after stroke
From the text: Transgenic mouse lines and commercially available laboratory mouse strains (Jackson Labs) were bred using standard procedures. These strains include wild-type C57BL/6J mice, and C57BL/6J mice with diet-induced obesity. Transgenic mice include mice deficient in tissue type plasminogen activator (tPA^−/−), mice expressing the S490A mutant of occludin, and mice expressing Cre under the vascular endothelium. The numbers of mice used are necessary to maintain the breeding colonies and to obtain statistical significance in the experiments. Mouse pups are weaned at 3 weeks of age. Mice are marked with standard mouse ear tags. […] Both male and female mice are used, but are initially analyzed separately. […]
Using the Tek promoter for control of stop flox expression, however, leads to 85% of bone marrow-derived cells expressing the gene as well as endothelial cells (Genesis. 2010 September; 48(9):563-7)). […] Expression of Tg:S490AOcc^+/+ reduced permeability induced by MCAO, as measured using 70 kDa dextran labeled with Texas Red (dextran). […] Five images surrounding the infarct were taken and mean pixel intensity was determined using Imaris software, averaged for each mouse with n of at least 8 mice. […]
In addition to these studies, the effect of the PKC-β inhibition on hemorrhagic transformation was measured after tPA induction in MCAO mice. […]

Q: For `CN(C)C[C@@H]1CCn2cc(c3ccccc32)C2=C(C(=O)NC2=O)c2cn(c3ccccc23)CCO1` [LY333531], which “reduction in cerebral permeability to dextran (surgical removal of ischemic region and penumbra, dye extraction)” value [1] is on record?
A: The value was ~30%.

Q: For `CN(C)C[C@@H]1CCn2cc(c3ccccc32)C2=C(C(=O)NC2=O)c2cn(c3ccccc23)CCO1` [Ruboxistaurin®], which “vascular permeability and edema in the eye” value [2] is on record?
A: Its value is “shown to reduce vascular permeability and edema in the eye”.

Q: What does the source list for “rtPA: recombinant tissue plasminogen activator, thrombolytic”?
A: patients having absolute benefit (acute ischemic stroke): 90 out of 1000; hemorrhagic transformation from late rtPA treatment (area of hemoglobin in serial brain sections) [3]: clear increase
